Laboratory results from patent US11034701B2, “Drug delivery and imaging chemical conjugate, formulations and methods of use thereof” (NanoPhagix LLC, priority 2015, dated 2021).

Assay: Stability in HPLC mobile phases
Type: physicochemical
Settings: HPLC mobile phases: MeOH/H2O/0.05% TFA, acetonitrile/H2O
From the text: • 1. The HPLC purity may not be true. […] The HPLC purity is greatly dependent upon the HPLC mobile phases. With MeOH/H2O/0.05% of TFA buffer, the HPLC purity is 90%. With MeOH/H2O mobile phase, the HPLC purity is 91.7%. With acetonitrile/H2O mobile phase, the HPLC purity is 99%. […] HPLC condition for the compound of Formula 2

| SMILES | stability under HPLC conditions |
| --- | --- |
| CO[C@H]1C[C@@H]2CC[C@@H](C)[C@@](O)(O2)C(=O)C(=O)N2CCCC[C@H]2C(=O)O[C@H]([C@H](C)C[C@@H]2CC[C@@H](OC(=O)CCCCCOC(=O)c3c(I)c(NC(C)=O)c(I)c(NC(C)=O)c3I)[C@H](OC)C2)CC(=O)[C@H](C)/C=C(\C)[C@@H](O)[C@@H](OC)C(=O)[C@H](C)C[C@H](C)/C=C/C=C/C=C/1C [Formula 2] | not stable under some HPLC conditions |
| CO[C@H]1C[C@@H]2CC[C@@H](C)[C@@](O)(O2)C(=O)C(=O)N2CCCC[C@H]2C(=O)O[C@H]([C@H](C)C[C@@H]2CC[C@@H](O)[C@H](OC)C2)CC(=O)[C@H](C)/C=C(\C)[C@@H](O)[C@@H](OC)C(=O)[C@H](C)C[C@H](C)/C=C/C=C/C=C/1C [rapamycin] | same stability issues in HPLC mobile phases |
